The structures appear in SMILES notation.

Assay [1] relates to CYP24A1. Kind of assay: RT-qPCR of CYP24A1 (24-hydroxylase), marker of calcitriol responsiveness. The note with it: H305Q mutant, 10 nM calcitriol, ex vivo. The class given is cell-based, human. Here is the method:
FIG. 3. […] (A) Control and HVDRR fibroblasts were treated with vehicle (0.1% ethanol) or 10 nM calcitriol for 6 hr. RT-qPCR assays were carried out for CYP24A1 a marker of calcitriol responsiveness. DM denotes double mutant with H305Q mutation in the VDR and BSCL2 mutation. […] Relative gene expression of UCP1 in WT and HVDRR fibroblasts differentiated with DIMR or DIMR plus 10 nM calcitriol for 14 days.
Real-time RT-PCR. […] RNA was isolated using RNeasy Plus Mini Kit (Qiagen, Valencia, Calif.). cDNA was prepared using Maxima Universal First Strand cDNA Synthesis kit (Fisher Scientific, Pittsburgh, Pa.). Real time PCR was performed using the DyNAmo ColorFlash qPCR kit (Fisher Scientific). Relative changes in mRNA expression were assessed by the 2-ΔΔC(T) method and normalized to that of the reference gene glyceraldehyde phosphate dehydrogenase (GAPDH). The values from vehicle treated normal control fibroblasts were set at 1. Assays were performed in triplicate.
Background: Quantitative PCR measures a nucleic acid by following its amplification.

For assay [2], the system named is differentiated human fibroblasts. Kind of assay: Lipolysis assay (glycerol release). In kind it is cell-based. Conditions: for increase in glycerol release compared to the undifferentiated cells: 10 μM isoproterenol 24 hrs. As for the experimental part: Lipolysis assay. To measure lipolysis activity, control and differentiated fibroblasts, were starved in DMEM containing 1% FBS overnight. Cells were then incubated for 24 hrs in HBSS (Hank's balanced salt solution) containing 2% fatty-acid-free BSA and 10 μM isoproterenol. The culture medium was collected for glycerol measurement using the free glycerol reagent (Sigma, St. Louis, Mo.).

As to `C=C1/C(=C\C=C2/CCC[C@]3(C)[C@@H]([C@H](C)CCCC(C)(C)O)CC[C@@H]23)C[C@@H](O)C[C@@H]1O` [calcitriol], the “induction of 24-hydroxylase (CYP24A1) expression by VDR” value in assay [1] was “rescues the induction”.

Consider `CC(C)NCC(O)c1ccc(O)c(O)c1` (stereo not shown) [isoproterenol], for which the “induction of lipolysis compared to the H305Q single mutant” value in assay [2] (H305Q/BSCL2 double mutant) is listed as “significantly less induction of lipolysis”. Moreover, the figures for the “increase in glycerol release compared to the undifferentiated cells” value in assay [2] (HVDRR cells differentiated with DIMR) and in assay [2] (WT control cells differentiated with DIMR) were 1.5-4 fold and 2.5 fold, respectively.
